Reference: ChEMBL document CHEMBL5352445, “Design and synthesis of functionalized 4-aryl-Catechol derivatives as new antiinflammtory agents with in vivo efficacy” (Eur J Med Chem, 2022)
Active and inactive are the calls of the source. No cut-off for these calls is given here.

How the values were obtained:
[1] = target: T1, Polyunsaturated fatty acid 5-lipoxygenase (Homo sapiens, UniProt P09917); assay: Inhibition of 5-lipoxygenase in human PMNL cells using arachidonic acid as substrate preincubated with compound for 15 mins followed by A23187 and substrate addition and measured after 10 mins by HPLC analysis; format: cell-based
T1 sequence (P09917 whole entry): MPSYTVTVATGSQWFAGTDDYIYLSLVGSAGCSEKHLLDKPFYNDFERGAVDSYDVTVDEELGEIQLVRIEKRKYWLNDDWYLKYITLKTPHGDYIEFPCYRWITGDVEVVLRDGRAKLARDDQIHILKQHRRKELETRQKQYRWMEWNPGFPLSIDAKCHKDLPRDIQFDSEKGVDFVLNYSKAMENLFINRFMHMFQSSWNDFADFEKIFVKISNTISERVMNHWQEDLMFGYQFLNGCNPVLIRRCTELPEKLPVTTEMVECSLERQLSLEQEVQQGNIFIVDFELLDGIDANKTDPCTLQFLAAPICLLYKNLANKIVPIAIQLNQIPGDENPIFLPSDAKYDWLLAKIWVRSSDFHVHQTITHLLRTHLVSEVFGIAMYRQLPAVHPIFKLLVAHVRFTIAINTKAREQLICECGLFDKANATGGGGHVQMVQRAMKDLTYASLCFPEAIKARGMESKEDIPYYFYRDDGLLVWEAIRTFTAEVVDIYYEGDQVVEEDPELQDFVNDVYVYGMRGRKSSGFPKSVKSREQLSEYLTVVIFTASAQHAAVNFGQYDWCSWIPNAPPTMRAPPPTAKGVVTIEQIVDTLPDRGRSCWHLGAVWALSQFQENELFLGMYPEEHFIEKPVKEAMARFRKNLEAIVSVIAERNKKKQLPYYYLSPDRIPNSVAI

[2] = Antioxidant activity assessed as quercetin equivalent of Ferric ion TPTZ reducing activity incubated for 6 mins by FRAP assay; format: functional
[3] = target: T2, Polyunsaturated fatty acid lipoxygenase ALOX12 (Homo sapiens) (UniProt P18054); assay: Inhibition of 12-lipoxygenase in human PMNL cells using arachidonic acid as substrate assessed as residual activity at 10 uM preincubated with compound for 15 mins followed by A23187 and substrate addition and measured after 10 mins by HPLC analysis relative to control; format: cell-based; settings: time 25.0 min
T2 sequence (whole entry): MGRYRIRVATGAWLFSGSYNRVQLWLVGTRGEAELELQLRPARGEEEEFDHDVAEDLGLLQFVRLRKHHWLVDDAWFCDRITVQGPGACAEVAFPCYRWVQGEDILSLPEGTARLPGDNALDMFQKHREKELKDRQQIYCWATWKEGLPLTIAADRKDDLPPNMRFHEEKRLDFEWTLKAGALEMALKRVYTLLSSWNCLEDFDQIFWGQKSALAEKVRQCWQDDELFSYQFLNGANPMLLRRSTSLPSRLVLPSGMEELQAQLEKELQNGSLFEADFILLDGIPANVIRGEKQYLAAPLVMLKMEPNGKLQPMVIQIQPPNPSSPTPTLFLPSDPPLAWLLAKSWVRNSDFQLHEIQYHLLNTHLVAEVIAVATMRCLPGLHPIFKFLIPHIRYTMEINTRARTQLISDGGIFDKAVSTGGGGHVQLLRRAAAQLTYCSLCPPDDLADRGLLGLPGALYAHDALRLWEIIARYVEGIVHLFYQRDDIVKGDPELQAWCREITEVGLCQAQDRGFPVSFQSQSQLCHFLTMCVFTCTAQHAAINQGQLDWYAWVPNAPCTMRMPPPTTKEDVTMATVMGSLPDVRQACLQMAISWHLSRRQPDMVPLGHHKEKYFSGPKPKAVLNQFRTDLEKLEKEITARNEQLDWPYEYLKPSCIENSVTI

[4] = target: T3, Polyunsaturated fatty acid lipoxygenase ALOX15 (Homo sapiens) (UniProt P16050); assay: Inhibition of 15-lipoxygenase in human PMNL cells using arachidonic acid as substrate assessed as residual activity at 10 uM preincubated with compound for 15 mins followed by A23187 and substrate addition and measured after 10 mins by HPLC analysis relative to control; format: cell-based; settings: time 25.0 min
T3 sequence (whole entry): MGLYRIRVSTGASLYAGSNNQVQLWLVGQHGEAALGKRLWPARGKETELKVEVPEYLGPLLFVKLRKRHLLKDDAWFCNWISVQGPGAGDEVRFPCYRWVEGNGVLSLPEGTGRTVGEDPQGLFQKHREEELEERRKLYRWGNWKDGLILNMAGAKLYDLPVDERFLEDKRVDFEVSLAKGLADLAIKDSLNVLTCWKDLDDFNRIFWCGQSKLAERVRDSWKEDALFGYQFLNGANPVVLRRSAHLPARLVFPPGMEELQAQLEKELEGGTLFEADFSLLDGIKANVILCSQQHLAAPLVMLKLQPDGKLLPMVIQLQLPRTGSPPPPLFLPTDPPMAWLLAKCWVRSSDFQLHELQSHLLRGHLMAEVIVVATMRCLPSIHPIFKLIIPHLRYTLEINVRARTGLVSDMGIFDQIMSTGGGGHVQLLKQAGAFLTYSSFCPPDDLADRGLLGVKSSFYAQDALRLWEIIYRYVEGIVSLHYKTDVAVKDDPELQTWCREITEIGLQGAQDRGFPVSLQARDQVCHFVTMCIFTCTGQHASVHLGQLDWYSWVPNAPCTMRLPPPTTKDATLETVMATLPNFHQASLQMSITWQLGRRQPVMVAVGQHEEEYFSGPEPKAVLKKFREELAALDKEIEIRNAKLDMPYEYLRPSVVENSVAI

[5] = Antioxidant activity assessed as DPPH radical scavenging activity by ultraviolet spectrophotometric analysis; format: functional
[6] = target: T1, Polyunsaturated fatty acid 5-lipoxygenase; assay: Inhibition of recombinant human 5-lipoxygenase expressed in Escherichia coli BL21 using arachidonic acid as substrate preincubated for 5 to 10 mins with compound followed by substrate addition and measured after 10 mins by HPLC analysis
Mus musculus [7] = assay: Anti-inflammatory activity against OVA-sensitized isolated perfused lung mouse model assessed as reduction in Ach-induced bronchoconstriction at 0.1 to 1 mg/kg, ip preadministered with compound for 30 mins followed by OVA challenge and measured 24 hrs after last aerosolized OVA challenge; format: functional, organism-based; settings: dose 0.1-1 mg/kg, time 24.5 hrs
[8] = target: T1, Polyunsaturated fatty acid 5-lipoxygenase; assay: Inhibition of 5-LOX in human PMNL cells; format: cell-based
Mus musculus [9] = assay: Antiinflammatory activity against zymosan-induced air pouch mouse model assessed as inhibition of cell migration at 0.1 mg/kg, ip preadministered with compound for 30 mins followed by sterile air injection three days once for 6 days and measured 4 hrs after zymosan administration by optical microscopic analysis; format: functional, organism-based; settings: time 148.5 hrs
Mus musculus [10] = assay: Antiinflammatory activity in carrageenan induced mouse paw edema model assessed as reduction in hind paw swelling at 0.1 to 10 mg/kg, ip preadministered with compound for 30 mins followed by carrageenan administration and measured upto 72 hrs by hydroplethismometer; format: functional, organism-based; settings: dose 0.1-10 mg/kg, time <= 72.5 hrs
[11] = target: T2, Polyunsaturated fatty acid lipoxygenase ALOX12 (Homo sapiens); assay: Inhibition of 12-lipoxygenase in human PMNL cells using arachidonic acid as substrate assessed as residual activity at 1 uM preincubated with compound for 15 mins followed by A23187 and substrate addition and measured after 10 mins by HPLC analysis relative to control; format: cell-based; settings: time 25.0 min
[12] = target: T3, Polyunsaturated fatty acid lipoxygenase ALOX15 (Homo sapiens); assay: Inhibition of 15-lipoxygenase in human PMNL cells using arachidonic acid as substrate assessed as residual activity at 1 uM preincubated with compound for 15 mins followed by A23187 and substrate addition and measured after 10 mins by HPLC analysis relative to control; format: cell-based; settings: time 25.0 min

| IC50 [1] [µM] | EC50 [2] [µM] | Activity [3] [%] | Activity [4] [%] | EC50 [5] [µM] | IC50 [6] [µM] | IC50 [8] [µM] | Activity [11] [%] | Activity [12] [%] | Compound | Activity (Mus musculus [7]) | Activity (Mus musculus [9]) | Activity (Mus musculus [10]) |
| --- | --- | --- | --- | --- | --- | --- | --- | --- | --- | --- | --- | --- |
| 0.25 | 1380 | 71.5 | 70.5 | 82 | 0.007 |  |  |  | Oc1ccc(-c2cccc3c2sc2ccccc23)cc1O |  |  |  |
| 0.47 | 190 | 86.1 | 112 | 46 | 0.05 |  |  |  | Oc1ccc(-c2ccccc2)cc1O |  |  |  |
| 0.27 | 970 | 88.8 | 82.8 | 37 | 0.01 |  |  |  | CCOc1ccc2ccccc2c1-c1ccc(O)c(O)c1 |  |  |  |
|  |  |  |  |  |  |  |  |  | CC(c1cc2ccccc2s1)N(O)C(N)=O (stereo not drawn) | Active |  |  |
|  |  |  |  |  |  | 10 |  |  | COC1=CC(=O)C(O)=C(C[C@]2(C)CC[C@@]3(C)C(C)=CCC[C@@H]3[C@@H]2C)C1=O |  |  |  |
|  |  |  |  |  |  | 0.03 |  |  | CCCCCCCCCCCCc1c(O)c(O)cc(OC)c1OC |  |  |  |
| 0.21 | 3080 | 69.5 | 70.3 | 54 | 0.076 |  |  |  | Oc1ccc(-c2cccc3c2oc2ccccc23)cc1O | Active | Active | Active |
| 1.11 | 460 | 80.6 | 71.1 | 49 | 0.03 |  |  |  | Oc1ccc(-c2cc3ccccc3o2)cc1O |  |  |  |
| 0.24 | 70 | 89.6 | 84.8 | 71 | 0.04 |  | 74 |  | Oc1ccc(-c2ccc3c(c2)OCCO3)cc1O |  |  |  |
|  |  |  |  |  |  | 1.5 |  |  | CCCCCCCCCCCC1=C(O)C(=O)C=C(O)C1=O [EMBELIN] |  |  |  |
| 0.21 | 610 | 86.6 | 84.1 | 74 | 0.02 |  |  |  | Oc1ccc(-c2cccc(Cl)c2)cc1O |  |  |  |
| 0.26 | 560 | 74.9 | 91.4 | 64 | 0.02 |  |  |  | Oc1ccc(-c2ccc(Cl)cc2)cc1O |  |  |  |
|  |  |  |  |  |  | 4.4 |  |  | Oc1cc(O)c(O)c(CC2CCC3CCCCC3C2)c1O (stereo not drawn) |  |  |  |
| 0.23 |  |  |  |  | 0.008 |  |  |  | Oc1ccc(-c2cccc3c2Sc2ccccc2S3)cc1O |  |  |  |
|  |  |  |  |  |  | 10 |  |  | O=C1C=C(O)C(=O)C(CC2CCC3CCCCC3C2)=C1O (stereo not drawn) |  |  |  |
| 2.34 | 890 | 49.4 |  | 51 | 0.01 |  |  | 114 | Oc1ccc(-c2c3ccccc3cc3ccccc23)cc1O |  |  |  |
| 0.32 | 370 | 93.8 | 57.2 | 53 | 0.007 |  |  |  | Oc1ccc(-c2ccc3ccccc3c2)cc1O |  |  |  |
| 1.33 | 650 | 75 | 80.8 | 275 | 0.21 |  |  |  | Oc1ccc(-c2ccc(O)c(O)c2)cc1 |  |  |  |
